Converted amounts (≈) assume the structure as drawn.
Tests used:
Format in all cases: functional
[1] = system: Mycobacterium tuberculosis; assay: Antimycobacterial activity against INH, RFP, EB, LVFX, SPFX, CPFX-resistant Mycobacterium tuberculosis isolate 15
[2] = system: Mycobacterium tuberculosis; assay: Antimycobacterial activity against INH, RFP, EB, LVFX, CPFX-resistant Mycobacterium tuberculosis isolate 4
[3] = system: Mycobacterium tuberculosis; assay: Antimycobacterial activity against RFP, EB-resistant Mycobacterium tuberculosis isolate 3
[4] = system: Mycobacterium tuberculosis; assay: Antimycobacterial activity against INH, RFP, EB, LVFX, SPFX, CPFX-resistant Mycobacterium tuberculosis isolate 2
[5] = system: Mycobacterium tuberculosis; assay: Antimycobacterial activity against INH, RFP, EB, KM, LVFX, SPFX, CPFX-resistant Mycobacterium tuberculosis isolate 11
[6] = system: Mycobacterium tuberculosis; assay: Antimycobacterial activity against INH, RFP, ETH-resistant Mycobacterium tuberculosis isolate 20
[7] = system: Mycobacterium tuberculosis; assay: Antimycobacterial activity against INH, RFP, EB-resistant Mycobacterium tuberculosis isolate 12
[8] = system: Mycobacterium tuberculosis; assay: Antimycobacterial activity against INH, RFP-resistant Mycobacterium tuberculosis isolate 17
[9] = system: Mycobacterium tuberculosis; assay: Antimycobacterial activity against INH, RFP, KM, LVFX, SPFX, CPFX-resistant Mycobacterium tuberculosis isolate 9
[10] = system: Mycobacterium tuberculosis; assay: Antimycobacterial activity against INH, RFP, SM, EB, KM, LVFX, SPFX, CPFX-resistant Mycobacterium tuberculosis isolate 6
[11] = system: Mycobacterium tuberculosis; assay: Antimycobacterial activity against INH, RFP, SM, EB, KM, PAS, EVM, LVFX-resistant Mycobacterium tuberculosis isolate 16
[12] = system: Mycobacterium tuberculosis; assay: Antimycobacterial activity against RFP-resistant Mycobacterium tuberculosis isolate 10
[13] = system: Mycobacterium tuberculosis; assay: Antimycobacterial activity against INH, RFP, SM, EB-resistant Mycobacterium tuberculosis isolate 13
[14] = system: Mycobacterium tuberculosis; assay: Antimycobacterial activity against INH, RFP, EB, LVFX, SPFX, CPFX-resistant Mycobacterium tuberculosis isolate 1
[15] = system: Mycobacterium tuberculosis; assay: Antimycobacterial activity against INH, RFP, EB-resistant Mycobacterium tuberculosis isolate 14
[16] = system: Mycobacterium tuberculosis; assay: Antimycobacterial activity against INH, RFP, EB, KM, LVFX, SPFX, CPFX-resistant Mycobacterium tuberculosis isolate 5
[17] = system: Mycobacterium tuberculosis; assay: Antimycobacterial activity against INH, RFP, SM, EB, PAS-resistant Mycobacterium tuberculosis isolate 18
[18] = system: Mycobacterium tuberculosis; assay: Antimycobacterial activity against RFP-resistant Mycobacterium tuberculosis isolate 7
[19] = system: Mycobacterium tuberculosis; assay: Antimycobacterial activity against RFP-resistant Mycobacterium tuberculosis isolate 8
[20] = system: Mycobacterium tuberculosis; assay: Antimycobacterial activity against INH, RFP, SM, EB, PAS, LVFX-resistant Mycobacterium tuberculosis isolate 19

SMILES | MIC [1] | MIC [2] | MIC [3] | MIC [4] | MIC [5] | MIC [6] | MIC [7] | MIC [8] | MIC [9] | MIC [10] | MIC [11] | MIC [12] | MIC [13] | MIC [14] | MIC [15] | MIC [16] | MIC [17] | MIC [18] | MIC [19] | MIC [20]
CC(=O)N[C@@H]1[C@@H](O)[C@H](O)[C@@H](CO)O[C@H]1SC(=S)N1CCCC1 | 6.25 µg/mL (≈ 17.8 µM) | 12.5 µg/mL (≈ 35.7 µM) | 6.25 µg/mL (≈ 17.8 µM) | 6.25 µg/mL (≈ 17.8 µM) | 12.5 µg/mL (≈ 35.7 µM) | 6.25 µg/mL (≈ 17.8 µM) | 6.25 µg/mL (≈ 17.8 µM) | 6.25 µg/mL (≈ 17.8 µM) | 6.25 µg/mL (≈ 17.8 µM) | 6.25 µg/mL (≈ 17.8 µM) | 6.25 µg/mL (≈ 17.8 µM) | 12.5 µg/mL (≈ 35.7 µM) | 6.25 µg/mL (≈ 17.8 µM) | 6.25 µg/mL (≈ 17.8 µM) | 6.25 µg/mL (≈ 17.8 µM) | 6.25 µg/mL (≈ 17.8 µM) | 6.25 µg/mL (≈ 17.8 µM) | 6.25 µg/mL (≈ 17.8 µM) | 6.25 µg/mL (≈ 17.8 µM) | 12.5 µg/mL (≈ 35.7 µM)
N.S=C(S)N1CCCC1 [PYRROLIDINE DITHIOCARBAMIC ACID, AMMONIUM SALT] | 0.2 µg/mL | 0.4 µg/mL | 0.2 µg/mL | 0.2 µg/mL | 0.2 µg/mL | 0.2 µg/mL | 0.2 µg/mL | 0.2 µg/mL | 0.2 µg/mL | 0.2 µg/mL | 0.2 µg/mL | 0.4 µg/mL | 0.2 µg/mL | 0.2 µg/mL | 0.2 µg/mL | 0.2 µg/mL | 0.2 µg/mL | 0.2 µg/mL | 0.2 µg/mL | 0.4 µg/mL
